Assay results: the supplement of paper PMC10307832

Legend:
Assay in all cases: relative viability (nuclei count vs DMSO), 5 days (fraction); higher = more cells survive
Seliciclib = compound: CC[C@H](CO)Nc1nc(NCc2ccccc2)c2ncn(C(C)C)c2n1 [Seliciclib]
Summary of the method: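 Lung cancer cell lines in 1536-well plates were exposed by pinning to five library-drug doses (not always all listed) √10 apart, following an overnight hold at 37 °C. MetaXpress counted Hoechst-stained nuclei from 4× images taken after 5 days without medium change. Viability is the median ratio of treated-well to vehicle-well nuclei across plates. Plates required control CV below 25% and at least one doubling.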

Seliciclib + Foretinib = compound: CC[C@H](CO)Nc1nc(NCc2ccccc2)c2ncn(C(C)C)c2n1 [Seliciclib] + COc1cc2c(Oc3ccc(NC(=O)C4(C(=O)Nc5ccc(F)cc5)CC4)cc3F)ccnc2cc1OCCCN1CCOCC1 [Foretinib] (partner 0.25 µM)
Summary of the method: (§1)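 Five library-drug doses in √10 steps were combined with a fixed anchor-drug dose, or a single drug was given alone, by pin tool to lung cancer cell lines in 1536-well plates the day after seeding. Nuclei were stained and counted after 5 days. Relative viability is the nuclei count in treated wells over that in vehicle wells, taken as the median of duplicate plates.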

Seliciclib + OSI-027 = compound: CC[C@H](CO)Nc1nc(NCc2ccccc2)c2ncn(C(C)C)c2n1 [Seliciclib] + COc1cccc2cc(-c3nc([C@H]4CC[C@H](C(=O)O)CC4)n4ncnc(N)c34)[nH]c12 [OSI-027] (partner 0.5 µM)
Summary of the method: as §1

Seliciclib + Palbociclib = compound: CC[C@H](CO)Nc1nc(NCc2ccccc2)c2ncn(C(C)C)c2n1 [Seliciclib] + CC(=O)c1c(C)c2cnc(Nc3ccc(N4CCNCC4)cn3)nc2n(C2CCCC2)c1=O [Palbociclib] (partner 0.5 µM)
Summary of the method: as §1

Cell Line	relative viability (Seliciclib; 0.08 µM)	relative viability (Seliciclib; 0.253 µM)	relative viability (Seliciclib; 0.8 µM)	relative viability (Seliciclib; 2.53 µM)	relative viability (Seliciclib; 8 µM)	relative viability (Seliciclib + Foretinib; first compound 0.08 µM)	relative viability (Seliciclib + Foretinib; first compound 0.253 µM)	relative viability (Seliciclib + Foretinib; first compound 0.8 µM)	relative viability (Seliciclib + Foretinib; first compound 2.53 µM)	relative viability (Seliciclib + Foretinib; first compound 8 µM)	relative viability (Seliciclib + OSI-027; first compound 0.08 µM)	relative viability (Seliciclib + OSI-027; first compound 0.253 µM)	relative viability (Seliciclib + OSI-027; first compound 0.8 µM)	relative viability (Seliciclib + OSI-027; first compound 2.53 µM)	relative viability (Seliciclib + OSI-027; first compound 8 µM)	relative viability (Seliciclib + Palbociclib; first compound 0.08 µM)	relative viability (Seliciclib + Palbociclib; first compound 0.253 µM)	relative viability (Seliciclib + Palbociclib; first compound 0.8 µM)	relative viability (Seliciclib + Palbociclib; first compound 2.53 µM)	relative viability (Seliciclib + Palbociclib; first compound 8 µM)
NCI-H1651	1.01	0.974	0.958	0.895	0.906	0.583	0.754	0.819	0.857	0.75	0.654	0.815	0.651	0.542	0.543	0.51	0.512	0.502	0.436	0.411
NCI-H1666	0.955	1.13	1.01	0.866	0.829	0.97	1.04	0.987	1	0.662	0.817	0.899	0.939	0.622	0.734	0.635	0.633	0.666	0.603	0.5
NCI-H1734	1.02	0.802	1.04	0.812	0.741	0.809	0.702	0.802	0.793	0.738	0.513	0.413	0.565	0.435	0.452	0.35	0.26	0.369	0.286	0.282
NCI-H1755	1.01	0.995	0.951	0.99	0.989	0.94	0.891	1.02	0.882	0.915	0.633	0.714	0.738	0.515	0.691	0.417	0.477	0.342	0.433	0.412
NCI-H1793	0.86	0.771	0.785	0.859	0.764	0.706	0.6	0.654	0.712	0.456	0.299	0.219	0.252	0.194	0.238	0.28	0.258	0.289	0.289	0.224
NCI-H1915	0.982	1.02	0.956	0.933	0.856	1.09	1.15	1.05	1.09	0.815	0.643	0.636	0.495	0.536	0.423	0.522	0.545	0.449	0.457	0.315
NCI-H1944	0.983	0.947	0.898	0.73	0.707	0.881	0.866	0.829	0.9	0.554	0.442	0.343	0.376	0.26	0.341	0.354	0.312	0.28	0.261	0.268
NCI-H1975	0.949	0.822	0.993	0.8	0.843	1	0.977	0.894	0.932	0.748	0.845	0.545	0.839	0.525	0.624	0.619	0.342	0.55	0.389	0.339
NCI-H1993	0.979	0.761	0.884	0.723	0.633	0.742	0.722	0.723	0.694	0.756	0.574	0.529	0.521	0.556	0.518	0.699	0.567	0.533	0.547	0.423
NCI-H2009	1.03	1.16	1.03	0.996	0.994	1.21	1.24	1.22	1.18	1.27	0.704	0.778	0.739	0.407	0.495	0.202	0.0934	0.162	0.155	0.161
NCI-H2023	0.989	0.956	0.964	0.857	0.725	0.752	0.664	0.865	0.909	0.833	0.418	0.304	0.396	0.188	0.323	0.366	0.324	0.295	0.183	0.159
NCI-H2085	1.01	1.04	1.01	0.961	0.873	0.89	0.954	0.903	0.829	0.676	0.803	0.679	0.59	0.685	0.577	0.472	0.44	0.419	0.41	0.314
NCI-H2087	1.03	1.08	0.956	0.836	0.791	1.16	1.05	1.04	1.07	0.816	0.617	0.533	0.497	0.273	0.432	0.28	0.288	0.241	0.16	0.151
